Laboratory results as given in US11485734B2, “Beta-carbolines as positive allosteric modulators of the human serotonin receptor 2C (5-HT2C)” (Northwestern University, priority 2018, dated 2022).
“Also recorded” adds a separate entry of the source.

Assays:
22-month old mice = assay: Novel Object Recognition in aged mice; assay type: in vivo; settings: AJC-61 2 mg/kg
Experimental: FIG. 8. Novel Object Recognition: Effect on discrimination index (DI) of Vehicle and AJC-61 (2 mg/kg) on 2.5 month old mice and 22-month old mice Data are shown as mean±S.E.M. of exploration time (s): n=14 pairs of mice per group.
Aged mice show a decline in memory function beginning around 13-15 month of age. Drugs which enhance memory can be assessed using the Novel Object Recognition test and determination of the Discrimination Index (DI) as discussed above. As such, we tested whether AJC-61 could improve the DI for aged mice (i.e., 22-month old mice) versus young mice (i.e., 2.5 month old mice).

[1] = target: T1, human serotonin receptor 2C (5-HT2c) (Homo sapiens, UniProt P28335); assay: 2C antagonist activity of selected compounds; assay type: cell-based
T1 sequence (P28335 33-458): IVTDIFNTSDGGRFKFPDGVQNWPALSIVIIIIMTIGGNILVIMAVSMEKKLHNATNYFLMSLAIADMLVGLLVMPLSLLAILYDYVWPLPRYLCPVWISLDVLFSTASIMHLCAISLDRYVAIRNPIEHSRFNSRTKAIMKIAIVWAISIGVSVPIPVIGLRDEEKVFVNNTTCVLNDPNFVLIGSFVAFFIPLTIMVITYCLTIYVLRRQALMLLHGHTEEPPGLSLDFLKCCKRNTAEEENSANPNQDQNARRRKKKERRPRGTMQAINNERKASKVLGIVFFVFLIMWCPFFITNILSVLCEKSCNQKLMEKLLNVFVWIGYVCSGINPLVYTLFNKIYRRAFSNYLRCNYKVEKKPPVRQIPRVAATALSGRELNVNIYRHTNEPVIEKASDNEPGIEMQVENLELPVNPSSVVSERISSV

mice [2] = assay: PCP-induced increase in locomotor activity (LMA); assay type: in vivo; settings: AJC-61 2 mg/kg, PCP 10 mg/kg, eight 15 minute intervals
Experimental: FIG. 2. […] The effect of AJC-61 (2 mg/kg) on PCP-induced (10 mg/kg) increase in locomotor activity in mice.
(§1) The ability of a test drug to block the increase in Locomotor Activity (LMA) produced by amphetamine or the glutamate receptor […], phencyclidine (PCP), has a high predictive value for the antipsychotic efficacy of the test drug for treating schizophrenia. […] As such, we tested the effect of AJC-61 on reducing LMA in mice that had been treated with amphetamine or PCP to increase LMA activity.

mice [3] = assay: Social Interaction in PCP-treated mice; assay type: in vivo; settings: AJC-61 2 mg/kg; PCP 10 mg/kg i.p. 7 days b.i.d.; 10-minute paradigm
Experimental: FIG. 4. Social Interaction: Effect of Vehicle, PCP (10 mg/kg: i.p., 7 days: b.i.d.), and PCP+AJC-61 (2 mg/kg), on social behaviors (sniffling, following, and avoiding) and interaction with inanimate object (object exploration), in a 10-minute social interaction (SI) paradigm. Data were analyzed by one-way ANOVA comparing the effect of drug treatment on each behavior and are shown as mean±S.E.M. of time (s); n=10 pairs of mice per group.
A healthy mouse will vigorously explore a newly introduce mouse and retain the memory for that mouse for up to 24 hours. The loss of interest in exploring a novel mouse is considered a sign of negative symptoms.
PCP-treatment produces a deficit in social interaction which models negative symptoms in schizophrenia. These include lack of motivation, loss of interest in activities, diminished capacity for pleasure and spontaneous activity. We tested the effect of AJC-61 on Social Interaction in mice that had been treated with PCP, including a Social Behaviors that include sniffing, following, and avoiding and Object Exploration via interaction with an inanimate object.

mice [4] = assay: Nestlet Shredding (NS) in PCP-treated mice; assay type: in vivo; settings: AJC-61 2 mg/kg; PCP 10 mg/kg i.p. 7 days b.i.d.; 30-minute NS; listed as AJC-16
Experimental: FIG. 7. Nestlet Shredding (NS): Effect of Vehicle, PCP (10 mg/kg; i.p., 7 days; b.i.d.), and PCP+AJC-61 (2 mg/kg) in a 30-minute Nestlet Shredding (NS) paradigm.
(§2) Marble Burying (MB) and extent of shredding a standard type of rodent bedding (i.e., Nestlet Shredding) are both proven methods for assessing drug efficacy to treat obsessive-compulsive disorder and Tourette's syndrome. As such, we tested the effect on AJC-61 on Marble Burying and Nestlet Shredding.

[5] = target: T1, human serotonin receptor 2C (5-HT2c); assay: 2C agonist activity of selected compounds; assay type: cell-based
mice [6] = assay: Marble Burying Task (MBT) in PCP-treated mice; assay type: in vivo; settings: AJC-61 2 mg/kg; PCP 10 mg/kg i.p. 7 days b.i.d.; 30-minute MBT; listed as AJC-16
Experimental: FIG. 6. Marble Burying Task (MBT): Effect of Vehicle, PCP (10 mg/kg; i.p., 7 days; b.i.d.), and PCP+AJC-61 (2 mg/kg) in a 30-minute Marble Burying Task (MBT) paradigm.
as §2

5-HT2a receptor = 5-HT2a receptor (Homo sapiens, UniProt P28223); assay: 2A agonist activity of selected compounds; assay type: cell-based
5-HT2a receptor, sequence (P28223 whole entry): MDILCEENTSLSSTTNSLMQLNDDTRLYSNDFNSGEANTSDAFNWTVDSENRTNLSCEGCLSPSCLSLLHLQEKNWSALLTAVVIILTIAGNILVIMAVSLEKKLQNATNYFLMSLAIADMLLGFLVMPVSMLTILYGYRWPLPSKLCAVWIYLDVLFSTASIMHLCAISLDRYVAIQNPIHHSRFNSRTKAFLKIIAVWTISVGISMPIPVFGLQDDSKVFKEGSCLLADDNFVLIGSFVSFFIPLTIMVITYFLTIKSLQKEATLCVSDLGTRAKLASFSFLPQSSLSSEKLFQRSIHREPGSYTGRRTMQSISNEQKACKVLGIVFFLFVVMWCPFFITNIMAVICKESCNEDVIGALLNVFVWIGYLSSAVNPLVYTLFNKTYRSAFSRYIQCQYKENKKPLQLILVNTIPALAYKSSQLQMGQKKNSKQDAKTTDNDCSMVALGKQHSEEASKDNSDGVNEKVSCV

mice [7] = assay: Amphetamine-induced increase in locomotor activity (LMA); assay type: in vivo; settings: AJC-61 2 mg/kg, amphetamine 2.5 mg/kg, eight 15 minute intervals
Experimental: FIG. 1. […] The effect of AJC-61 (2 mg/kg) on amphetamine-induced (2.5 mg/kg) increase in locomotor activity in mice.
as §1

mice [8] = assay: Porsolt Forced Swim Test (FST) in PCP-treated mice; assay type: in vivo; settings: AJC-61 2 mg/kg, PCP 10 mg/kg i.p. 7 days b.i.d., 6-min FST
Experimental: FIG. 5. Porsolt Forced Swim Test (FST). Effect of Vehicle, PCP (10 mg/kg; i.p., 7 days; b.i.d.), and PCP+AJC-61 (2 mg/kg), in a 6-min Porsolt Forced Swim Test (FST).
The Porsolt Forced Swim Test (FST) is a gold standard test for antidepressant action. In the FST, normal mice become immobile after being required to swim in a tank and begin to float instead of struggling to get out of the water. […] As such, we tested whether AJC-61 could increase the swim time in a FST.

male C57BL/6J mice = assay: Novel Object Recognition in PCP-treated mice; assay type: in vivo; settings: AJC-61 2 mg/kg, PCP 10 mg/kg
Experimental: FIG. 3. Novel Object Recognition: Discrimination index (DI) for male C57BL/6J mice treated with Vehicle, PCP (10 mg/kg), and PCP+AJC-61 (2 mg/kg). Data are shown as mean±S.E.M. of exploration time (s) n=10 mice per group.
The Novel Object Recognition test in rodents is considered a valid model of spatial memory in man. […] Normal mice remember for ˜24 hours. The time to loss of the memory in aged mice can be as low as zero to less than 8 hours. As such, we tested the effect of AJC-61 on reducing the DI in mice that had been treated with PCP to reduce the DI.

Oc1ccc2[nH]c3c(-c4cncnc4)nccc3c2c1 [AJC-61, 1-(pyrimidin-5-yl)-9H-pyrido[3,4-b]indol-6-61]
Discrimination index (DI), AJC-61 versus Vehicle (22-month old mice): significant increase in the DI | IC50 [1]: > 10000 nM | Effect on PCP-induced increase in locomotor activity (mice [2]): blocked PCP-induced increase in locomotor activity; also recorded: blocked the PCP-induced increase in LAM | Object exploration (inanimate object) (mice [3]): no significant change | Social interaction: avoiding, PCP+AJC-61 versus PCP (mice [3]): significant decrease in avoiding | Social interaction: following (mice [3]): no significant change | Social interaction: sniffing, PCP+AJC-61 versus PCP (mice [3]): significant increase in sniffing | Percent nestlet shredded, PCP+AJC-61 versus PCP (mice [4]): significant decrease in the percent nestlet shredded | 2C agonist [5]: inactive | Number of marbles buried, PCP+AJC-61 versus PCP (mice [6]): significant decrease in the number of marbles buried | 2A agonist (5-HT2a receptor): inactive | Effect on amphetamine-induced increase in locomotor activity (mice [7]): blocked amphetamine-induced increase in locomotor activity; also recorded: blocked the amphetamine-induced increase in LMA | Immobility time, PCP+AJC-61 versus PCP (mice [8]): significantly decreased the immobility time | Immobility time, PCP+AJC-61 versus PCP (mice [8]; listed as AJC-16): Significant decrease in immobility time | Discrimination index (DI), PCP+AJC-61 versus PCP (male C57BL/6J mice): significant increase in DI

Oc1ccc2[nH]c3c(c2c1)CCNC3c1ccccc1O (stereo not drawn) [MJO-01-34]
EC50 [5]: 85.9 nM | Emax [5]: 103% | EC50 (5-HT2a receptor): 106 nM | Emax (5-HT2a receptor): 27%

Clc1ccc2[nH]c3c(c2c1)CCNC3CCc1ccccc1 (stereo not drawn) [MJO-01-46]
EC50 [5]: 5.37 nM | Emax (2C agonist) [5]: 98% | EC50 (5-HT2a receptor): 11.3 nM | Emax (2A agonist) (5-HT2a receptor): 96%

Fc1ccc2[nH]c3c(c2c1)CCNC3c1cncnc1 (stereo not drawn) [MJO-01-31]
EC50 [5]: 10.1 nM | Emax [5]: 101% | EC50 (5-HT2a receptor): 54.6 nM | Emax (5-HT2a receptor): 95%
